# Reference: article PMC12211128, “Safety, tolerability, pharmacokinetic and pharmacodynamic effects of the muscarinic M1 positive allosteric modulator VU0467319 for Alzheimer’s disease: a single ascending-dose study in healthy participants” (Alzheimer's Research & Therapy, 2025)
# Test: Plasma pharmacokinetics, single ascending dose and food effect studies
# Type: in vivo, human
# Conditions: for %AUCext / AUC0 − last / AUC0−∞ / CL/F / Cmax / Vz/F / t½: mean (SD); for Tmax: median (min, max)
# From the text: Participants were screened up to 40 days prior to admission to the Vanderbilt Clinical Research Center (CRC). At admission, participants had baseline vital signs, clinical laboratory parameters and ECG were collected. The participants stayed overnight at the CRC, and in the morning performed the pre-dose cognitive and electrophysiological (ERP) batteries. Following completion of these batteries, pre-dose blood and urine for pharmacokinetic (PK) analysis was collected, as well as a second set of baseline vital signs. Participants then received an oral dose of VU319 or placebo with water. VU319 doses were assessed in five dose escalating cohorts of eight participants (60, 120, 240, 400 & 600 mg). The initial dose of 60 mg was chosen by allometric scaling of the highest no observed adverse effect level (NOAEL) in animal species and reduced by a safety factor of 10. The increase in doses following the initial dose of 60 mg followed a modified Fibonacci sequence. In each cohort, six participants received oral VU319 while two participants received placebo. The randomization of participants to either placebo or active VU319 was done using a randomly permuted block procedure at a ratio of 1:3 for each of five dosages of VU319. Participants were required to remain in the CRC for 36 h after dosing for the first four cohorts, and for 48 h for the 600 mg cohort and the food effect study due to the change in PK sampling (discussed more below). Cognitive and ERP batteries were performed five hours post-dose. The decision to escalate to the next dose cohort was determined by review and approval from an independent safety monitoring committee, based on the PK data, as well as the safety and tolerability data from the preceding dose level.
# The food effect study was completed after the first 5 ascending cohorts, participants were dosed once in a fasted state and once following a controlled high fat breakfast. Based on the PK results of the single ascending dose cohorts (see results), the 120 mg dosage group was chosen for the food effect study. This dose was chosen as it was a low-middle dosage in which the pharmacokinetic parameters could move up or down depending on the addition of food. The food effect study consisted of twelve participants, ten of whom received oral 120 mg VU319, while the other two received placebo. The participants received VU319 or placebo on two separate visits to the Vanderbilt CRC. These visits were separated by at least 14 days to allow for washout. On one visit, participants were dosed in a fasted state, while on the other visit, participants were dosed 30 min after eating a controlled high-fat breakfast. The order of the fed/fast conditions were randomized and balanced so that half the cohort were dosed fasting first, and the other half fed first. Post-dose procedures were shifted 30 min to allow for breakfast, but otherwise all study procedures remained the same as in the ascending dose cohorts.
# Blood samples (4 mL) were obtained by direct venipuncture into K2 EDTA tubes at 0.5 h pre-dose and at 0.5, 1, 1.5, 2, 2.5, 3, 5, 7, 9, 12, 24, 26, 28, 36, 48 and 144-hours post-dose. […] Urine samples for PK quantification were collected at pre-dose and 2, 5, 12, 24, 36 and 144-hours post-dose.
# Determination of plasma and urine concentrations of VU319 and metabolite VU0481424 (VU424) was carried out in compliance with Good Laboratory Practice using a validated method at Illinois Institute of Technology Research Institute (IITRI) laboratories. Pharmacokinetic endpoints included the following VU319 parameters for plasma: area under the plasma concentration-time curve (AUC0 − 48); area under the plasma concentration-time curve extrapolated to infinity (AUC0−∞); percentage of the extrapolated area under the plasma concentration-time curve (%AUCextrap); maximum observed plasma concentration (Cmax); time (in hours) at which Cmax occurred (Tmax); clearance (Cl/F); elimination half-life (t1/2) and volume of distribution (Vd/F). […]
# [1] = VU319 120 mg oral, fasted, food effect study
# [2] = VU319 120 mg oral, fed, food effect study
compound,measurement,setting,value
Cn1cc2c(-c3cc(F)c(CN4Cc5ncccc5C4=O)c(F)c3)cccc2n1 [VU319],"inter-participant variability (CV%) of Cmax, AUC0last, AUC0−∞","120 mg, fasted and fed conditions",24–38%
same,AUC under fed vs fasted conditions,"120 mg, food effect study",insignificantly higher
same,"Cmax under fed vs fasted conditions, higher by","120 mg, food effect study",51%
same,"dose proportionality of systemic exposure (Cmax, AUC0 − last, AUC0−∞)","60 to 600 mg, linear power model",less than dose-proportional
same,%AUCext,"VU319 60 mg oral, SAD",4.81 (6.18) %
same,AUC0 − last,"VU319 60 mg oral, SAD",36.8 (10.9) µg•h/mL
same,AUC0−∞,"VU319 60 mg oral, SAD",39.2 (13.3) µg•h/mL
same,CL/F,"VU319 60 mg oral, SAD",1.73 (0.71) L/h
same,Cmax,"VU319 60 mg oral, SAD",0.725 (0.209) µg/mL
same,Vz/F,"VU319 60 mg oral, SAD",71.8 (20.2) L
same,t½,"VU319 60 mg oral, SAD",31.5 (13.3) h
same,Tmax,"VU319 60 mg oral, SAD","7.00 (2.50, 9.00) h"
same,%AUCext,"VU319 120 mg oral, SAD",6.30 (3.55) %
same,AUC0 − last,"VU319 120 mg oral, SAD",60.1 (13.7) µg•h/mL
same,AUC0−∞,"VU319 120 mg oral, SAD",59.0 (9.07) µg•h/mL
same,CL/F,"VU319 120 mg oral, SAD",2.07 (0.28) L/h
same,Cmax,"VU319 120 mg oral, SAD",0.884 (0.312) µg/mL
same,Vz/F,"VU319 120 mg oral, SAD",107 (6.4) L
same,t½,"VU319 120 mg oral, SAD",55.4 (46.8) h
same,Tmax,"VU319 120 mg oral, SAD","5.00 (2.00, 24.0) h"
same,%AUCext,[1],5.86 (4.51) %
same,AUC0 − last,[1],56.8 (18.0) µg•h/mL
same,AUC0−∞,[1],60.7 (23.3) µg•h/mL
same,CL/F,[1],2.35 (1.15) L/h
same,Cmax,[1],0.985 (0.38) µg/mL
same,Vz/F,[1],94.4 (27.8) L
same,t½,[1],37.4 (15.9) h
same,Tmax,[1],"5.11 (2.50, 48.1) h"
same,%AUCext,[2],5.79 (4.31) %
same,AUC0 − last,[2],62.5 (15.6) µg•h/mL
same,AUC0−∞,[2],66.6 (19.3) µg•h/mL
same,CL/F,[2],2.01 (0.85) L/h
same,Cmax,[2],1.42 (0.344) µg/mL
same,Vz/F,[2],85.3 (16.4) L
same,t½,[2],36.9 (17.0) h
same,Tmax,[2],"5.02 (2.50, 8.97) h"
same,%AUCext,"VU319 240 mg oral, SAD",5.48 (6.31) %
same,AUC0 − last,"VU319 240 mg oral, SAD",63.8 (18.4) µg•h/mL
same,AUC0−∞,"VU319 240 mg oral, SAD",78.3 (15.2) µg•h/mL
same,CL/F,"VU319 240 mg oral, SAD",3.15 (0.58) L/h
same,Cmax,"VU319 240 mg oral, SAD",1.18 (0.425) µg/mL
same,Vz/F,"VU319 240 mg oral, SAD",143 (52.7) L
same,t½,"VU319 240 mg oral, SAD",35.0 (14.5) h
same,Tmax,"VU319 240 mg oral, SAD","9.50 (3.00, 24.0) h"
same,%AUCext,"VU319 400 mg oral, SAD",11.2 (4.73) %
same,AUC0 − last,"VU319 400 mg oral, SAD",132 (47.4) µg•h/mL
same,AUC0−∞,"VU319 400 mg oral, SAD",124 (32.0) µg•h/mL
same,CL/F,"VU319 400 mg oral, SAD",3.42 (0.96) L/h
same,Cmax,"VU319 400 mg oral, SAD",1.72 (0.447) µg/mL
same,Vz/F,"VU319 400 mg oral, SAD",219 (21.6) L
same,t½,"VU319 400 mg oral, SAD",46.2 (9.54) h
same,Tmax,"VU319 400 mg oral, SAD","5.98 (2.02, 48.2) h"
same,%AUCext,"VU319 600 mg oral, SAD",5.73 (2.41) %
same,AUC0 − last,"VU319 600 mg oral, SAD",207 (47.1) µg•h/mL
same,AUC0−∞,"VU319 600 mg oral, SAD",221 (54.6) µg•h/mL
same,CL/F,"VU319 600 mg oral, SAD",2.87 (0.77) L/h
same,Cmax,"VU319 600 mg oral, SAD",2.81 (0.64) µg/mL
same,Vz/F,"VU319 600 mg oral, SAD",123 (23.8) L
same,t½,"VU319 600 mg oral, SAD",30.4 (4.37) h
same,Tmax,"VU319 600 mg oral, SAD","5.01 (2.00, 48.0) h"
same,plasma half-life (initial findings),"first SAD cohorts, reason for changed sampling times",> 30 h
same,dose proportionality of systemic exposure,"higher doses, 240 to 600 mg",approximately proportional to dose
